Results as given in patent US20240262727A1, “METHOD FOR IMPROVING BIOLOGICAL NITROGEN REMOVAL EFFECT OF LOW-TEMPERATURE SEWAGE” (Sichuan University, priority 2023, published 2024).

How the values were obtained:
[1] = system: microbial community of the activated sludge; experiment: High-throughput sequencing / metagenomics of SBR activated sludge (microbial community and functional genes); conditions: for relative content of Nakamurella (nitrifying bacteria): 17.46% without
Experimental: After the treatment effect was stable, high-throughput sequencing was conducted on the activated sludge to analyze a composition of the microbial community. […] The increased abundance of functional bacteria and functional genes in the activated sludge SBR reactor improved the nitrogen removal effect of this reactor.

[2] = system: activated sludge and biofilm phases; experiment: EPS and ATP of the activated sludge and biofilm phases of the MBBR
Experimental: The EPS concentration in the sludge phase was 46.12±4.8 mg/g·VSS, and the intracellular ATP was 1273.11±5.4 ngATP/mL; the EPS concentration in the biofilm phase was 53.34±3.7 mg/g. VSS, and the microbial activity concentration of a single filler was 20.67±0.22 ngATP/piece.

[3] = system: biofilm / quorum quenching bacteria; experiment: Biofilm MBBR reactor at 22° C., microbial community structure; conditions: 100 μg/L
Experimental: The sludge was discharged on the 12th day after the biofilm was successfully formed on the filler. The C4-HSL with a concentration of 100 μg/L was added to the influent. The rest steps were the same as those in Example 5.
The high concentration of C4-HSL allowed the quorum quenching bacteria to grow at a suitable temperature (22±1° C.), stimulating quorum quenching and inhibiting the attachment and growth of microorganisms to the filler.

[4] = system: activated sludge-biofilm composite system; experiment: Activated sludge-biofilm composite MBBR reactor at 6° C., pollutant removal efficiency; conditions: 100 μg/L, HRT 18 h
[5] = system: activated sludge-biofilm composite system; experiment: as above
Experimental: (2) The hydraulic retention time was 20 h, and an effluent from the reactor was collected to detect the pollutant removal efficiency. After a short period of adaptation, the COD concentration in the reactor effluent dropped below 50 mg/L, and the removal efficiency was always maintained at 85%. After adding the C4-HSL, the nitrogen removal effect gradually became more prominent. On the 16th day, the effluent ammonia-nitrogen concentration dropped below 8 mg/L (a maximum allowable emission concentration of ammonia-nitrogen from most urban sewage treatment plants at a water temperature of below 12° C.) to 6.77 mg/L, and the removal efficiency was 71.86%. On the 51st day, the ammonia-nitrogen concentration in the effluent dropped to almost 0, and the removal efficiency was greater than 99%.
There were three stages: increasing COD from 160 mg/L to 500 mg/L (260, 400, 500 mg/L); increasing ammonia-nitrogen concentration from 25 mg/L to 75 mg/L (40, 65, 75 mg/L); increasing TP from 2 mg/L to 8.5 mg/L (4, 6, 8.5 mg/L).
(§1) The C4-HSL with a concentration of 100 μg/L was added to the influent. The rest steps were the same as those in Example 5.

[6] = system: activated sludge; experiment: Activated sludge SBR reactor, biological nitrogen removal with added AHLs signal molecule; conditions: for MLSS lower than that of the control group (without C4-HSL added): 4° C.; for MLSS of the reactor lower than that of the control group (without C4-HSL): after stable operation
[7] = system: activated sludge; experiment: as above
Experimental: A system to be treated was cooled to 10° C., and an activated sludge SBR reactor was adopted with an effective volume of 1 L and an MLSS of 4,000 mg/L.
Incoming influent: COD: 250 mg/L, ammonia-nitrogen concentration (NH4^+—N): 30 mg/L, TP: 1.5 mg/L, pH=7-8.
12 h was an operation cycle, including 2.5 h of anoxic phase, 8 h of aerobic phase, and 1.5 h of standing. The anoxic phase had dissolved oxygen (DO) maintained below 0.5 mg/L, and the aerobic phase had DO>2.5 mg/L.
An N-butanoyl-homoserine lactone stock solution with a concentration of 10 mg/L, which was added every 2 operation cycles following the influent.
This example differed from Example 1 in that the treatment system was cooled to 7° C., and after the operation was stable, the water temperature was further lowered to 4° C.

[8] = system: biofilm on the filler; experiment: Single biofilm MBBR at low temperature (sludge discharged on 18th day), pollutant removal and community structure
Experimental: as §1
The hydraulic retention time was 18 h, the rest steps were the same as those Example 1, and the COD removal efficiency was 85%; after the reactor was drained of sludge, the nitrification effect dropped sharply.

[9] = 40 μg/L, 6° C., after treatment effect stable
[10] = 100 μg/L, 6° C., after treatment effect stable
[11] = 100 μg/L, after raising influent in three stages
[12] = room temperature, 0, 10, 100 μg/L, after 74 cycles
[13] = 100 μg/L, after reactor drained of sludge

SMILES: CCCC(=O)N[C@H]1CCOC1=O [C4-HSL, N-butanoyl-L-homoserine lactone]
- abundance of CS gene (TCA cycle) ([1]; 10 μg/L, 10° C.): 0.017%
- abundance of complete nitrifying bacterium Nitrospira ([1]; 10 μg/L, 10° C.): 0.100%
- abundance of decomposition genes related to QS ([1]; 10 μg/L, 10° C.): 1.92%
- abundance of denitrifying bacterium Dechloromonas ([1]; 10 μg/L, 10° C.): 0.246%
- abundance of denitrifying bacterium Denitratisoma ([1]; 10 μg/L, 10° C.): 0.189%
- abundance of fum gene (TCA cycle) ([1]; 10 μg/L, 10° C.): 0.018%
- abundance of regulatory genes related to QS ([1]; 10 μg/L, 10° C.): 2.40%
- abundance of sdh gene (TCA cycle) ([1]; 10 μg/L, 10° C.): 0.030%
- abundance of transport genes related to QS ([1]; 10 μg/L, 10° C.): 7.75%
- abundance of ammonia-oxidizing bacterium MND1 ([1]; 10 μg/L, 10° C. (Example 1)): 0.007%
- share of complete nitrification process in nitrogen metabolism ([1]; 10 μg/L, 10° C., metagenomic): 12.53%
- abundance of CS gene (TCA cycle) ([1]; 100 μg/L, 10° C.): 0.021%
- abundance of Nitrospira ([1]; 100 μg/L, 10° C.): 0.222%
- abundance of ammonia-oxidizing bacterium MND1 ([1]; 100 μg/L, 10° C.): 0.005%
- abundance of decomposition genes related to QS ([1]; 100 μg/L, 10° C.): 2.50%
- abundance of fum gene (TCA cycle) ([1]; 100 μg/L, 10° C.): 0.021%
- abundance of heterotrophic nitrifying-aerobic denitrifying bacterium (Microbacterium) ([1]; 100 μg/L, 10° C.): 0.463%
- abundance of mdh gene (TCA cycle) ([1]; 100 μg/L, 10° C.): 0.011%
- abundance of nitrification gene nxr ([1]; 100 μg/L, 10° C.): 0.027%
- abundance of nitrogen removal gene nirK ([1]; 100 μg/L, 10° C.): 0.015%
- abundance of regulatory genes related to QS ([1]; 100 μg/L, 10° C.): 2.98%
- abundance of sdh gene (TCA cycle) ([1]; 100 μg/L, 10° C.): 0.040%
- abundance of transport genes related to QS ([1]; 100 μg/L, 10° C.): 9.22%
- share of complete nitrification process in nitrogen metabolism ([1]; 100 μg/L, 10° C.): 13.82%
- total abundance of 11 species of denitrifying bacteria ([1]; 100 μg/L, 10° C.): 16.53%
- abundance of ammonia-oxidizing bacterium Ellin6067 ([1]; 100 μg/L, 10° C. (Example 2)): 0.393%
- relative abundance of Arthrobacter, Nakamurella, Micrococcaceae and Nitrosomonas ([1]; 4° C., after system stable): promoted the increase
- relative abundance of TM7a, Nakamurella, Tessaracoccus and Ferruginibacter ([1]; 7° C., after system stabilized): increased
- effect on Actinobacteriota and Gemmatimonadota ([1]; room temperature): inhibition at low concentrations and promotion at high concentrations
- relative content of Nakamurella (nitrifying bacteria) ([1]; room temperature, high-concentration C4-HSL): 20.79%
- relative content of Nakamurella (nitrifying bacteria) ([1]; room temperature, low-concentration C4-HSL): 16.66%
- growth and reproduction of Patescibacteria ([1]; room temperature, effect increased with concentration): promote
- growth of Proteobacteria and Bacteroidota (phylum level) ([1]; room temperature, stronger at higher concentration): inhibited
- EPS concentration in the biofilm phase [2, 9]: 53.34±3.7 mg/g. VSS
- EPS concentration in the sludge phase [2, 9]: 46.12±4.8 mg/g·VSS
- intracellular ATP (sludge phase) [2, 9]: 1273.11±5.4 ngATP/mL
- microbial activity concentration of a single filler [2, 9]: 20.67±0.22 ngATP/piece
- EPS concentration in the activated sludge phase ([2]; 40 μg/L, third stage influent): 127.07±4.5 mg/g·VSS
- EPS concentration in the biofilm phase ([2]; 40 μg/L, third stage influent): 113.70±2.59 mg/g. VSS
- intracellular ATP (sludge phase) ([2]; 40 μg/L, third stage influent): 1709.78±4.1 ngATP/mL
- microbial activity concentration of a single filler ([2]; 40 μg/L, third stage influent): 113.99±0.67 ngATP/mL
- EPS concentration in activated sludge phase [2, 10]: 80.62±3.1 mg/g·VSS
- EPS concentration in biofilm phase [2, 10]: 96.74±2.8 mg/g·VSS
- intracellular ATP (sludge phase) [2, 10]: 2441.01±7.2 ngATP/mL
- microbial activity concentration of a single filler [2, 10]: 26.56±0.42 ngATP/piece
- EPS concentration in activated sludge phase [2, 11]: 380.38±5.7 mg/g·VSS
- EPS concentration in biofilm phase [2, 11]: 235.18±3.5 mg/g·VSS
- intracellular ATP (sludge phase) [2, 11]: 5868.42±8.9 ngATP/mL
- microbial activity concentration of a single filler [2, 11]: 113.99±0.67 ngATP/mL
- colonization and growth of biofilm ([3]; 22° C.): inhibited
- growth of quorum quenching bacteria ([3]; 22° C. (Comparative Example 8)): promoted
- ammonia-nitrogen removal efficiency ([4]; 5th day): 77.43%
- effluent ammonia-nitrogen concentration ([4]; 5th day (Example 6)): 5.85 mg/L
- ammonia-nitrogen removal efficiency ([4]; 12th day): greater than 99%
- ammonia-nitrogen removal efficiency ([5]; 40 μg/L, 6° C., 16th day): 71.86%
- effluent ammonia-nitrogen concentration ([5]; 40 μg/L, 6° C., 16th day, influent 25 mg/L): 6.77 mg/L
- ammonia-nitrogen concentration in the effluent ([5]; 40 μg/L, 6° C., 51st day): ~0
- ammonia-nitrogen removal efficiency ([5]; 40 μg/L, 6° C., 51st day): greater than 99%
- COD removal efficiency ([5]; 40 μg/L, 6° C., HRT 20 h): 85%
- COD concentration in the reactor effluent ([5]; 40 μg/L, 6° C., HRT 20 h, influent COD 160 mg/L (Example 5)): below 50 mg/L
- effluent COD concentration ([5]; 40 μg/L, 6° C., third stage influent COD 500, ammonia-nitrogen 75, TP 8.5 mg/L, 234th day): below 50 mg/L
- TN removal efficiency ([5]; 40 μg/L, third stage influent): not less than 80%
- effluent total nitrogen (TN) concentration ([5]; 40 μg/L, third stage influent): 12 mg/L
- COD removal efficiency ([5]; 40 μg/L, third stage influent, 234th day): 95%
- effluent ammonia-nitrogen removal efficiency ([5]; 100 μg/L, after raising influent in three stages (COD 500, ammonia-nitrogen 75, TP 8.5 mg/L)): not less than 99%
- COD removal efficiency ([6]; 10 μg/L added every 2 cycles, 10° C. (Example 1)): 90%
- MLSS lower than that of the control group (without C4-HSL added) ([6]; 10 μg/L): 40%
- TN average effluent concentration ([6]; 10 μg/L, 10° C. (Example 1)): 11.40 mg/L
- average NH4+—N removal efficiency ([6]; 10 μg/L, 10° C. (Example 1)): 99.69%
- cycles after which TN removal efficiency reached stability ([6]; 10 μg/L, 10° C. (Example 1)): 27 cycles
- TN average removal efficiency ([6]; 10 μg/L, 10° C., after stability (Example 1)): 64.97%
- MLSS of the reactor lower than that of the control group (without C4-HSL) ([6]; 10 μg/L, 10° C.): 2%
- MLSS lower than that of the control group (without C4-HSL added) ([6]; 100 μg/L): 38%
- average NH4+—N removal efficiency ([6]; 100 μg/L, 4° C. (Example 4)): 98.8%
- TN average effluent concentration ([6]; 100 μg/L, 10° C.): 12.86 mg/L
- cycles after which TN removal efficiency reached stability ([6]; 100 μg/L, 10° C.): 27 cycles
- COD removal efficiency ([6]; 100 μg/L, 10° C. (Example 2)): 90%
- average NH4+—N removal efficiency ([6]; 100 μg/L, 10° C. (Example 2)): 99.85%
- TN average removal efficiency ([6]; 100 μg/L, 10° C., after stability): 60.46%
- MLSS of the reactor lower than that of the control group (without C4-HSL) ([6]; 100 μg/L, 10° C.): 12%
- TN removal efficiency and NH4+—N removal efficiency compared with not adding C4-HSL ([6]; low temperatures, Example 1 vs Comparative Example 1, FIG. 1 and 2): significantly improved
- effect of adding C4-HSL on the nitrogen removal effect ([6]; room temperature): little effect
- ammonia-nitrogen removal efficiency [6, 12]: not less than 99%
- effluent TN [6, 12]: not more than 15 mg/L
- effluent ammonia-nitrogen concentration [6, 12]: around 0.1 mg/L
- removal efficiency of COD [6, 12]: not less than 90%
- average NH4+—N removal efficiency ([7]; 10 μg/L, 4° C. (Example 3)): 99.3%
- MLSS lower than that of the control group (without C4-HSL added) ([7]; 10 μg/L, 7° C.): 22%
- average NH4+—N removal efficiency ([7]; 10 μg/L, 7° C., after stabilization (Example 3)): 96.9%
- MLSS lower than that of the control group (without C4-HSL added) ([7]; 100 μg/L, 7° C.): 19%
- average NH4+—N removal efficiency ([7]; 100 μg/L, 7° C., after stabilization (Example 4)): 96.3%
- COD removal efficiency ([8]; 100 μg/L, HRT 18 h, sludge discharged on 18th day (Comparative Example 7)): 85%
- ammonia-nitrogen removal efficiency [8, 13]: 40%
- effluent ammonia-nitrogen concentration [8, 13]: 12 mg/L
- growth and enrichment of Bacteroidetes and Actinobacteria on the filler ([8]; low temperature conditions): beneficial to promote the growth and enrichment
- nitrification effect of a single biofilm system ([8]; low temperature, single biofilm system): could not quickly improve
